US9738634B2, “Heterocyclic amide compound and herbicide” (SYNGENTA PARTICIPATIONS AG, priority 2013, dated 2017)

Key:
Format in all cases: in vivo
Settings in all cases: treatment dosage 320 g/ha
[1] = tested on: soybean; test: Test Example 4: foliar treatment, effect on crop; d: soybean
Procedure, shortened: (§1)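 Seeds are spot-sown into sterilized diluvial soil and covered with about 1.5 cm of soil. After 14 days' greenhouse growth at 25 to 30° C, plants are sprayed on stems and leaves with diluted emulsion at the stated g/ha rate, then scored at 3 weeks.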

[2] = tested on: Italian ryegrass; test: Test Example 3: weedkilling efficacy through soil treatment; I: Italian ryegrass
Procedure, shortened: (§2)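 Crop and weed responses were judged three weeks after a uniform surface spray of the water-diluted emulsion at the given g/ha rate. Seeds sat beneath about 1.5 cm of sterilized diluvial soil, and boxes stood in a greenhouse at 25 to 30° C.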

[3] = tested on: corn; test: Test Example 4: foliar treatment, effect on crop; c: corn
Procedure, shortened: as §1

[4] = tested on: catchweed; test: Test Example 4: weedkilling efficacy by foliar treatment; O: catchweed
Procedure, shortened: as §1

[5] = tested on: soybean; test: Test Example 3: soil treatment, effect on crop; d: soybean
Procedure, shortened: as §2

[6] = tested on: catchweed; test: Test Example 3: weedkilling efficacy through soil treatment; O: catchweed
Procedure, shortened: as §2

[7] = tested on: birds-eye speedwell; test: Test Example 3: weedkilling efficacy through soil treatment; p: birds-eye speedwell
Procedure, shortened: as §2

[8] = tested on: green foxtail; test: Test Example 3: weedkilling efficacy through soil treatment; E: green foxtail
Procedure, shortened: as §2

[9] = tested on: redroot pigweed; test: Test Example 4: weedkilling efficacy by foliar treatment; L: redroot pigweed
Procedure, shortened: as §1

[10] = tested on: oval-leafed pondweed; test: Test Example 2: weedkilling efficacy, growth period weed treatment in the submerged state; C: oval-leafed pondweed
Procedure, shortened: (§3)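 Weeds treated at the 1-2 leaf stage by application of diluted emulsion onto floodwater (4 cm depth, alluvial soil) at specified g/ha. Grown in greenhouse at 25 to 30° C; herbicidal effect rated three weeks after treatment.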

[11] = tested on: bulrush; test: Test Example 1: weedkilling efficacy, preemergent weed treatment in the submerged state; B: bulrush
Procedure, shortened: (§4)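 Pots of alluvial soil were flooded to a 4 cm depth. Mixed weed seeds were sown and 2.5 leaf-stage rice seedlings transplanted. On sowing day, water-diluted emulsion was applied to the water surface (dose in g/ha). After 3 weeks at 25–30 °C, effects were rated.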

[12] = tested on: green foxtail; test: Test Example 4: weedkilling efficacy by foliar treatment; E: green foxtail
Procedure, shortened: as §1

[13] = tested on: Indian mallow; test: Test Example 4: weedkilling efficacy by foliar treatment; K: Indian mallow
Procedure, shortened: as §1

[14] = tested on: directly sown rice; test: Test Example 4: foliar treatment, effect on crop; b: directly sown rice
Procedure, shortened: as §1

[15] = tested on: wheat; test: Test Example 3: soil treatment, effect on crop; e: wheat
Procedure, shortened: as §2

[16] = tested on: transplanted rice; test: Test Example 1: preemergent weed treatment in the submerged state, effect on crop; a: transplanted rice
Procedure, shortened: as §4

[17] = tested on: chickweed; test: Test Example 4: weedkilling efficacy by foliar treatment; N: chickweed
Procedure, shortened: as §1

[18] = tested on: black-grass; test: Test Example 4: weedkilling efficacy by foliar treatment; H: black-grass
Procedure, shortened: as §1

[19] = tested on: barnyard grass; test: Test Example 3: weedkilling efficacy through soil treatment; F: barnyard grass
Procedure, shortened: as §2

[20] = tested on: bulrush; test: Test Example 2: weedkilling efficacy, growth period weed treatment in the submerged state; B: bulrush
Procedure, shortened: as §3

[21] = tested on: crabgrass; test: Test Example 3: weedkilling efficacy through soil treatment; D: crabgrass
Procedure, shortened: as §2

[22] = tested on: common wind-grass; test: Test Example 4: weedkilling efficacy by foliar treatment; J: common wind-grass
Procedure, shortened: as §1

[23] = tested on: Indian mallow; test: Test Example 3: weedkilling efficacy through soil treatment; K: Indian mallow
Procedure, shortened: as §2

[24] = tested on: corn; test: Test Example 3: soil treatment, effect on crop; c: corn
Procedure, shortened: as §2

[25] = tested on: oval-leafed pondweed; test: Test Example 1: weedkilling efficacy, preemergent weed treatment in the submerged state; C: oval-leafed pondweed
Procedure, shortened: as §4

[26] = tested on: rapeseed; test: Test Example 4: foliar treatment, effect on crop; g: rapeseed
Experimental: (§5) Testing of Weedkilling Efficacy by Foliar Treatment
(§6) Sterilized diluvial soil was introduced into 21 cm long, 13 cm wide, 7 cm deep plastic boxes, and seeds of crabgrass, green foxtail, barnyard grass, wild oat, black-grass, Italian ryegrass, common wind-grass, Indian mallow, redroot pigweed, fig-leafed goosefoot, chickweed, catchweed, birds-eye speedwell, corn, soybean, rice, wheat, beet and rapeseed were each spot-sown, and covered with about 1.5 cm of soil, then the plants were grown in a greenhouse at 25 to 30° C.
(§7) After they had grown for 14 days, emulsions of compounds of the present invention prepared according to compounding example 2 were diluted with water to give the specified dosages, and applied uniformly onto the stem and leaf parts with a small sprayer. 3 weeks after the pesticide treatment the effect on each type of plant was investigated on the basis of the assessment criteria of test example 1.
(§8) A: barnyard grass, B: bulrush, C: oval-leafed pondweed, D: crabgrass, E: green foxtail, F: barnyard grass, G: wild oat, H: black-grass, I: Italian ryegrass, J: common wind-grass, K: Indian mallow, L: redroot pigweed, M: fig-leafed goosefoot, N: chickweed, O: catchweed, p: birds-eye speedwell, a: transplanted rice, b: directly sown rice, c: corn, d: soybean, e: wheat, f: beet, g: rapeseed
(§9) Further, pesticide dosage (g/ha) indicates the concentration regulated such that treatment was with only the stated number of grams (g), when calculated per hectare (ha).

[27] = tested on: black-grass; test: Test Example 3: weedkilling efficacy through soil treatment; H: black-grass
Procedure, shortened: as §2

[28] = tested on: wheat; test: Test Example 4: foliar treatment, effect on crop; e: wheat
Procedure, shortened: as §1

[29] = tested on: rapeseed; test: Test Example 3: soil treatment, effect on crop; g: rapeseed
Procedure, shortened: as §2

[30] = tested on: redroot pigweed; test: Test Example 3: weedkilling efficacy through soil treatment; L: redroot pigweed
Procedure, shortened: as §2

[31] = tested on: common wind-grass; test: Test Example 3: weedkilling efficacy through soil treatment; J: common wind-grass
Procedure, shortened: as §2

[32] = tested on: fig-leafed goosefoot; test: Test Example 4: weedkilling efficacy by foliar treatment; M: fig-leafed goosefoot
Procedure, shortened: as §1

[33] = tested on: barnyard grass; test: Test Example 1: weedkilling efficacy, preemergent weed treatment in the submerged state; A: barnyard grass
Procedure, shortened: as §4

[34] = tested on: beet; test: Test Example 4: foliar treatment, effect on crop; f: beet
Procedure, shortened: as §1

[35] = tested on: beet; test: Test Example 3: soil treatment, effect on crop; f: beet
Procedure, shortened: as §2

[36] = tested on: crabgrass; test: Test Example 4: weedkilling efficacy by foliar treatment; D: crabgrass
Procedure, shortened: as §1

[37] = tested on: wild oat; test: Test Example 3: weedkilling efficacy through soil treatment; G: wild oat
Procedure, shortened: as §2

[38] = tested on: directly sown rice; test: Test Example 3: soil treatment, effect on crop; b: directly sown rice
Procedure, shortened: as §2

[39] = tested on: barnyard grass; test: Test Example 2: weedkilling efficacy, growth period weed treatment in the submerged state; A: barnyard grass
Procedure, shortened: as §3

[40] = tested on: Italian ryegrass; test: Test Example 4: weedkilling efficacy by foliar treatment; I: Italian ryegrass
Procedure, shortened: as §1

[41] = tested on: barnyard grass; test: Test Example 4: weedkilling efficacy by foliar treatment; F: barnyard grass
Experimental: as §5, §6, §7, §8, §9

[42] = tested on: wild oat; test: Test Example 4: weedkilling efficacy by foliar treatment; G: wild oat
Procedure, shortened: as §1

Which “d (soybean) effect on crop grade” value [1] does the source give for `CC1=C(c2ccccc2)C(=O)N(C(C)(C)C(=O)Nc2cc(Br)cc(F)n2)CO1` [B-2-35] here?
Its value is 4 (weed kill ratio 70% or more, less than 90%).

What about the “I (Italian ryegrass) weedkilling efficacy grade” value [2] of the same compound?
Its value is 5 (weed kill ratio 90% or more, (practically complete withering)).

What about the “c (corn) effect on crop grade” value [3] of the same compound?
Its value is 1 (weed kill ratio 5% or more, less than 20%).

And the “O (catchweed) weedkilling efficacy grade” value [4]?
The value was 5 (weed kill ratio 90% or more, (practically complete withering)).

What about the “d (soybean) effect on crop grade” value [5] of the same compound?
The value was 0 (weed kill ratio 5% or less (practically no effect)).

And the “O (catchweed) weedkilling efficacy grade” value [6]?
Its value is 0 (weed kill ratio 5% or less (practically no effect)).

And the “P (birds-eye speedwell) weedkilling efficacy grade” value [7]?
Its value is 4 (weed kill ratio 70% or more, less than 90%).

What about the “E (green foxtail) weedkilling efficacy grade” value [8] of the same compound?
Its value is 5 (weed kill ratio 90% or more, (practically complete withering)).

What about the “L (redroot pigweed) weedkilling efficacy grade” value [9] of the same compound?
Its value is 3 (weed kill ratio 40% or more, less than 70%).

And the “C (oval-leafed pondweed) weedkilling efficacy grade” value [10]?
Its value is 5 (weed kill ratio 90% or more, (practically complete withering)).

And the “B (bulrush) weedkilling efficacy grade” value [11]?
Its value is 5 (weed kill ratio 90% or more, (practically complete withering)).

And the “E (green foxtail) weedkilling efficacy grade” value [12]?
The value was 5 (weed kill ratio 90% or more, (practically complete withering)).

What about the “K (Indian mallow) weedkilling efficacy grade” value [13] of the same compound?
Its value is 3 (weed kill ratio 40% or more, less than 70%).

What about the “b (directly sown rice) effect on crop grade” value [14] of the same compound?
The value was 4 (weed kill ratio 70% or more, less than 90%).

What about the “e (wheat) effect on crop grade” value [15] of the same compound?
The value was 1 (weed kill ratio 5% or more, less than 20%).

And the “a (transplanted rice) effect on crop grade” value [16]?
Its value is 0 (weed kill ratio 5% or less (practically no effect)).

And the “N (chickweed) weedkilling efficacy grade” value [17]?
Its value is 3 (weed kill ratio 40% or more, less than 70%).

And the “H (black-grass) weedkilling efficacy grade” value [18]?
Its value is 4 (weed kill ratio 70% or more, less than 90%).

And the “F (barnyard grass) weedkilling efficacy grade” value [19]?
The value was 4 (weed kill ratio 70% or more, less than 90%).

What about the “B (bulrush) weedkilling efficacy grade” value [20] of the same compound?
Its value is 5 (weed kill ratio 90% or more, (practically complete withering)).

And the “D (crabgrass) weedkilling efficacy grade” value [21]?
Its value is 5 (weed kill ratio 90% or more, (practically complete withering)).

And the “J (common wind-grass) weedkilling efficacy grade” value [22]?
Its value is 4 (weed kill ratio 70% or more, less than 90%).

What about the “K (Indian mallow) weedkilling efficacy grade” value [23] of the same compound?
The value was 4 (weed kill ratio 70% or more, less than 90%).

What about the “c (corn) effect on crop grade” value [24] of the same compound?
The value was 1 (weed kill ratio 5% or more, less than 20%).

What about the “C (oval-leafed pondweed) weedkilling efficacy grade” value [25] of the same compound?
The value was 5 (weed kill ratio 90% or more, (practically complete withering)).

And the “g (rapeseed) effect on crop grade” value [26]?
Its value is 4 (weed kill ratio 70% or more, less than 90%).

What about the “H (black-grass) weedkilling efficacy grade” value [27] of the same compound?
Its value is 5 (weed kill ratio 90% or more, (practically complete withering)).

And the “e (wheat) effect on crop grade” value [28]?
The value was 0 (weed kill ratio 5% or less (practically no effect)).

And the “g (rapeseed) effect on crop grade” value [29]?
Its value is 4 (weed kill ratio 70% or more, less than 90%).

What about the “L (redroot pigweed) weedkilling efficacy grade” value [30] of the same compound?
Its value is 3 (weed kill ratio 40% or more, less than 70%).

What about the “J (common wind-grass) weedkilling efficacy grade” value [31] of the same compound?
The value was 5 (weed kill ratio 90% or more, (practically complete withering)).

What about the “M (fig-leafed goosefoot) weedkilling efficacy grade” value [32] of the same compound?
Its value is 4 (weed kill ratio 70% or more, less than 90%).

And the “A (barnyard grass) weedkilling efficacy grade” value [33]?
The value was 5 (weed kill ratio 90% or more, (practically complete withering)).

And the “f (beet) effect on crop grade” value [34]?
Its value is 3 (weed kill ratio 40% or more, less than 70%).

And the “f (beet) effect on crop grade” value [35]?
The value was 4 (weed kill ratio 70% or more, less than 90%).

What about the “D (crabgrass) weedkilling efficacy grade” value [36] of the same compound?
The value was 5 (weed kill ratio 90% or more, (practically complete withering)).

What about the “G (wild oat) weedkilling efficacy grade” value [37] of the same compound?
Its value is 4 (weed kill ratio 70% or more, less than 90%).

And the “b (directly sown rice) effect on crop grade” value [38]?
Its value is 2 (weed kill ratio 20% or more, less than 40%).

And the “A (barnyard grass) weedkilling efficacy grade” value [39]?
Its value is 5 (weed kill ratio 90% or more, (practically complete withering)).

And the “I (Italian ryegrass) weedkilling efficacy grade” value [40]?
The value was 4 (weed kill ratio 70% or more, less than 90%).

What about the “F (barnyard grass) weedkilling efficacy grade” value [41] of the same compound?
The value was 5 (weed kill ratio 90% or more, (practically complete withering)).

What about the “G (wild oat) weedkilling efficacy grade” value [42] of the same compound?
Its value is 2 (weed kill ratio 20% or more, less than 40%).
